From patent publication US8629242B2, “Methods of inhibiting calcineurin with ApoE analogs” (Cognosci, Inc., priority 2007, dated 2014)
Where two headings read alike, the source gives them in different places. Where a SMILES comes first, the peptide text is derived from it. [ ]: non-standard residue; d: D form. Aib = CC(C)(N)C(=O)O

What was measured:
[1] = tested on: enriched OPC cultures; assay: Number of mature oligodendrocytes after differentiation of enriched OPC culture; assay type: cell-based, rat; settings: 2 μM COG 133, 1 μM COG 112 or 1 μM COG 68 for four days, then six days differentiation without analog
Description: FIG. 11. ApoE analogs increase the number of mature oligodendrocytes in culture. ApoE analogs (COG 133, COG 112, and COG 68) were added to enriched OPC culture in proliferation media for four days. Cultures were then differentiated in the absence of the ApoE analogs. Cells were labeled with a GST-π antibody to detect mature oligodendrocytes.
Since COG 112 increased the proliferation of OPCs, we next examined whether the ApoE analogs could also increase the number of mature oligodendrocytes. Enriched OPC cultures were prepared as described for the previous experiment. 2 μM COG 133 (SEQ ID NO: 1), 1 μM COG 112 (SEQ ID NO: 5), or 1 μM COG 68 (Ac-[…]-NH2; SEQ ID NO: 7) were added to the enriched OPC cultures in proliferation media for four days. The media was then replaced with differentiation medium without the ApoE analogs for an additional six days. Cells were labeled with a GST-π antibody to detect mature oligodendrocytes.

[2] = Maximum tolerated dose; assay type: in vivo; settings: for MTD: in vivo
Excerpt: To fully evaluate the use of ApoE analogs as therapeutic compounds, the margin of safety should also be determined. Towards that end, we determined the maximum tolerated dose of COG 112, COG 248, and COG 345 when administered by intravenous and subcutaneous injection.

[3] = target: T1, Calcineurin (Homo sapiens, UniProt Q08209); assay: Cell-free calcineurin phosphatase activity assay (BioMol kit); assay type: biochemical; settings: various concentrations
T1 construct: purchased BioMol AK-804
Description: FIG. 14. ApoE analogs bind directly to calcineurin and inhibit its activity. […] (B) Immunoprecipitation of human brain lysate with a biotin-COG 133 conjugate. Lane 1=markers; lane 2=clear bead; lane 3=biotin-COG 133 bead conjugate; and lane 4=10 μg lysate. (C) Immunoprecipitation of different glial cultures with a biotin-COG 133 conjugate. Lane 1=markers; lane 2=astrocyte; lane 3=microglia; and lane 4=oligodendrocyte precursor cells (OPC). Blots in B and C were probed for calcineurin (PP2B).
Calcineurin activity was measured in a cell-free in vitro assay in the presence of various concentrations of COG 133 (SEQ ID NO: 1), COG 112 (SEQ ID NO: 5), COG 68 (SEQ ID NO: 7), COG 125 (Ac-AS(Aib)LRKL(Aib)KR—COOH; SEQ ID NO: 8), or antennapedia (antp), the prefix peptide for COG 112. […] Using a BioMol Calcineurin Phosphatase Activity Kit (Cat. #AK-804), the assay was conducted according to manufacturer's instructions. […] This inhibition of calcineurin activity by ApoE analogs is mediated by a direct interaction of the ApoE analog with the phosphatase.

[4] = tested on: animal model of human diseases; assay: Minimum effective dose in animal models; assay type: in vivo
[5] = tested on: PLP-induced relapsing-remitting experimental autoimmune encephalomyelitis (EAE) model; assay: PLP-induced relapsing-remitting EAE model; assay type: in vivo; set-up: CSmax during relapse (mean ± SEM) / Area under curve (mean ± SEM): scale not given here; settings: 4 mg/kg s.c.; for Area under curve (mean ± SEM): clinical score vs days post-inoculation, out to 60 days; for CSmax during relapse (mean ± SEM): maximal clinical score during relapse; for Relapse Rate: number of animals experiencing a relapse
Description: To further compare the activity of the various ApoE analogs, the efficacy of the analogs was assessed in a PLP-induced relapsing-remitting experimental autoimmune encephalomyelitis (EAE) model. […] The second dose was administered the next day followed by three times a week (M, W, F). Relapse rate represents the number of animals experiencing a relapse, while the CSmax indicates the maximal clinical score during relapse. Area under curve represents the area under the curve in a plot of clinical score vs. days post-inoculation (out to 60 days). […] The improvement in relapse rate and clinical score in the EAE model by ApoE analog treatment may be due, in part, to the remyelination-promoting effect of the ApoE analogs.

[6] = sc, subcutaneous injection, read-out: Maximum Tolerated Dose Subcutaneous
[7] = intravenous injection, read-out: Maximum Tolerated Dose Intravenous

Molecule	number of mature oligodendrocytes (GST-π) [1]	MTD [2, 6] [mg/kg]	MTD [2, 7] [mg/kg]	inhibition of calcineurin activity [3]	Minimum Effective Dose (model) ([4]; models: CIA, EAE)	Area under curve (mean ± SEM) [5]	CSmax during relapse (mean ± SEM) [5]	Relapse Rate [5]	safety profile by intravenous injection ([2]; compared to the other analogs on a molar basis)	Minimum Effective Dose (model) ([4]; model: EAE)	improvement in relapse rate and maximum clinical score during relapse [5]	Minimum Effective Dose (model) ([4]; models: EAE, TBI)
CC(=O)N[C@@H](CC(C)C)C(=O)N[C@@H](CCCNC(=N)N)C(=O)N[C@H](C(=O)N[C@@H](CCCNC(=N)N)C(=O)N[C@@H](CC(C)C)C(=O)N[C@@H](C)C(=O)N[C@@H](CO)C(=O)N[C@@H](Cc1c[nH]cn1)C(=O)N[C@@H](CC(C)C)C(=O)N[C@@H](CCCNC(=N)N)C(=O)N[C@@H](CCCCN)C(=O)N[C@@H](CC(C)C)C(=O)N[C@@H](CCCNC(=N)N)C(=O)N[C@@H](CCCCN)C(=O)N[C@@H](CCCNC(=N)N)C(=O)N[C@@H](CC(C)C)C(=O)N[C@@H](CC(C)C)C(N)=O)C(C)C [COG 133]	significantly increased the number of mature oligodendrocytes	> 100	16	dose-dependent inhibition	1 mg/kg (CIA, EAE)	25.3 ± 8.3	3.2 ± 0.7	7/14	–	–	–	–
CC(=O)NC(=N)NCCC[C@H](NC(=O)[C@H](CCCCN)NC(=O)[C@H](CCCNC(=N)N)NC(=O)[C@H](CC(C)C)NC(=O)[C@H](CCCCN)NC(=O)[C@H](CCCNC(=N)N)NC(=O)[C@H](CC(C)C)NC(=O)C(C)(C)NC(=O)[C@H](CO)NC(=O)[C@H](C)NC(=O)[C@H](CC(C)C)NC(=O)[C@H](CCCNC(=N)N)NC(=O)[C@@H](NC(=O)[C@H](CCCNC(=N)N)NC(=O)[C@H](CC(C)C)NC(C)=O)C(C)C)C(=O)N[C@@H](CC(C)C)C(=O)N[C@@H](CC(C)C)C(N)=O [COG 345, acetyl-LRVRLAS-Aib-LRKLRK(acetyl-Arg)LL-amide] (Ac-LRVRLAS[Aib]LRKLRKR(Ac)LL-NH2)	–	> 150	20 to 25	–	–	15.5 ± 2.5	1.4 ± 0.2	4/15	superior safety profile	1 mg/kg (EAE)	significant improvement	–
Ac-RQIKIWFQNRRMKWKKCLRVRLASHLRKLRKRLL-NH2 [COG 112]	significantly increased the number of mature oligodendrocytes	> 100	28	dose-dependent inhibition	–	16.7 ± 3.6	2.4 ± 0.8	5/14	–	–	–	1 mg/kg (EAE, TBI)
